row,Structure (SMILES),melting point
1,"CS(=O)(=O)CCCOc1cccc2c1cnn2-c1ccnc(N[C@H]2CC[C@H](N3CCCS3(=O)=O)CC2)n1 [Compound 215, [4-(1,1-dioxo-isothiazolidin-2-yl)-cyclohexyl]-{4-[4-(3-methane-sulfonyl-propoxy)-indazol-1-yl]-pyrimidin-2-yl}-amine]",206 to 207 °C
2,"CC(=O)N[C@H]1CC[C@H](Nc2nccc(-n3ccc4c(S(C)(=O)=O)cccc43)n2)CC1 [Compound 218, N-{4-[4-(4-methane-sulfonyl-indol-1-yl)-pyrimidin-2-ylamino]-cyclohexyl}-acetamide]",264 to 265 °C
3,"COCCOc1cccc2c1ccn2-c1ccnc(N[C@H]2CC[C@H](NS(C)(=O)=O)CC2)n1 [Compound 221, N-(4-{4-[4-(2-methoxy-ethoxy)-indol-1-yl]-pyrimidin-2-ylamino}-cyclohexyl)-methanesulfonamide]",203 to 205 °C
4,"N#CCCCOc1cccc2c1cnn2-c1ccnc(N[C@H]2CC[C@H](C(=O)N3CCC(O)CC3)CC2)n1 [Compound 226, 4-(1-{2-[4-(4-hydroxy-piperidine-1-carbonyl)-cyclohexylamino]-pyrimidin-4-yl}-1H-indazol-4-yloxy)-butyro-nitrile]",201 to 202 °C
5,"CC(C)(CO)COc1cccc2c1cnn2-c1ccnc(N[C@H]2CC[C@H](C(=O)N3CCC(O)CC3)CC2)n1 [Compound 227, (4-{4-[4-(3-hydroxy-2,2-dimethylpropoxy)-indazol-1-yl]-pyrimidin-2-ylamino}-cyclohexyl)-(4-hydroxy-piperidin-1-yl)-methanone]",213 to 214.5 °C
6,"CS(=O)(=O)N[C@H]1CC[C@H](Nc2nccc(-n3ncc4c(OCCCS(N)(=O)=O)cccc43)n2)CC1 [Compound 228, 3-{1-[2-(4-methane-sulfonylamino-cyclo-hexylamino)-pyrimidin-4-yl]-1H-indazol-4-yloxy}-propane-1-sulfonic acid amide]",250 to 251 °C
7,"O=C([C@H]1CC[C@H](Nc2nccc(-n3ccc4c(C5(O)CCOCC5)cccc43)n2)CC1)N1CCC(O)CC1 [Compound 232, (4-hydroxy-piperidin-1-yl)-(4-{4-[4-(4-hydroxy-tetrahydro-pyran-4-yl)-indol-1-yl]-pyrimidin-2-ylamino}-cyclohexyl)-methanone]",168 to 169 °C
8,"CS(=O)(=O)N[C@H]1CC[C@H](Nc2nccc(-n3ccc4c(OCCCC(F)(F)F)cccc43)n2)CC1 [Compound 235, N-(4-{4-[4-(4,4,4-tri-fluoro-butoxy)-indol-1-yl]-pyrimidin-2-yl-amino}-cyclohexyl)-methanesulfonamide]",241 to 242 °C
9,"COCCCOc1cccc2c1ccn2-c1ccnc(N[C@H]2CC[C@H](NS(C)(=O)=O)CC2)n1 [Compound 236, N-(4-{4-[4-(3-methoxy-propoxy)-indol-1-yl]-pyrimidin-2-ylamino}-cyclohexyl)-methanesulfonamide]",207 to 208 °C
10,"CS(=O)(=O)CCCOc1cccc2c1ccn2-c1ccnc(N[C@H]2CC[C@H](C(=O)N3CCC(F)CC3)CC2)n1 [Compound 239, (4-fluoro-piperidin-1-yl)-(4-{4-[4-(3-methane-sulfonyl-propoxy)-indol-1-yl]-pyrimidin-2ylamino}-cyclohexyl)-methanone]",115 to 116 °C
11,"CC(C)(O)c1cccc2c1ccn2-c1ccnc(N[C@H]2CC[C@H](N(CCO)S(C)(=O)=O)CC2)n1 [Compound 240, N-(2-hydroxyethyl)-N-(4-{4-[4-(2-hydroxy-prop-2-yl)-indol-1-yl]-pyrimidin-2-ylamino}-cyclohexyl)-methane-sulfonamide]",214 to 215 °C
12,"Oc1cccc2c1cnn2-c1ccnc(N[C@H]2CC[C@H](O)CC2)n1 [Compound 242, 1-[2-(4-hydroxy-cyclohexylamino)-pyrimidin-4-yl]-1H-indazol-4-ol]",> 300 °C
13,"NS(=O)(=O)CCCOc1cccc2c1cnn2-c1ccnc(N[C@H]2CC[C@H](C(=O)N3CCC(O)CC3)CC2)n1 [Compound 243, 3-(1-{2-[4-(4-hydroxy-piperidine-1-carbonyl)-cyclohexylamino]-pyrimidin-4-yl}-1H-indazol-4yloxy)-propane-1-sulfonic acid amide]",237 to 238 °C
14,"CS(=O)(=O)N[C@H]1CC[C@H](Nc2nccc(-n3cc(C#N)c4ccccc43)n2)CC1 [Compound 247, N-{4-[4-(3-cyano-indol-1-yl)-pyrimidin-2-ylamino]-cyclohexyl}-methanesulfonamide]",> 300 °C
15,"CN([C@H]1CC[C@H](Nc2nccc(-n3cc(C#N)c4ccccc43)n2)CC1)S(C)(=O)=O [Compound 248, N-{4-[4-(3-cyano-indol-1-yl)-pyrimidin-2-ylamino]-cyclohexyl}-N-methyl-methane-sulfonamide]",289 to 290 °C
16,"CN(C)C(=O)[C@H]1CC[C@H](Nc2nccc(-n3ccc4c(OCCCS(C)(=O)=O)cccc43)n2)CC1 [Compound 251, 4-{4-[4-(3-methane-sulfonyl-propoxy)-indol-1-yl]-pyrimidin-2-ylamino}-cyclohexane-carboxylic acid dimethylamide]",169 to 170 °C
17,"CS(=O)(=O)CCCOc1cccc2c1cnn2-c1ccnc(N[C@H]2CC[C@H](C(=O)c3ccccn3)CC2)n1 [Compound 256, (4-{4-[4-(3-methane-sulfonyl-propoxy)-indazol-1-yl]-pyrimidin-2-ylamino}-cyclohexyl)-pyrid-2-yl-methanone]",200 to 201 °C
18,"COC(=O)c1cccc2c1ccn2-c1ccnc(N[C@H]2CC[C@H](NS(=O)(=O)C3CC3)CC2)n1 [Compound 257, 1-[2-(4-cyclopropane-sulfonylamino-cyclo-hexylamino)-pyrimidin-4-yl]-1H-indole-4-carboxylic acid methyl ester]",250 to 251 °C

# More lines, now with the values ahead:
row,melting point,Structure (SMILES)
1,226 to 227 °C,"CC(=O)NCCCOc1cccc2c1cnn2-c1ccnc(N[C@H]2CC[C@H](N(C)S(C)(=O)=O)CC2)n1 [Compound 213, N-[3-(1-{2-[4-(methane-sulfonyl-methylamino)-cyclohexylamino]-pyrimidin-4-yl}-1H-indazol-4-yloxy)-propyl]-acetamide]"
2,207 to 208 °C,"CS(=O)(=O)CCCOc1cccc2c1ccn2-c1ccnc(N[C@H]2CC[C@H](CO)CC2)n1 [Compound 214, (4-{4-[4-(3-methanesulfonyl-propoxy)-indol-1-yl]-pyrimidin-2-ylamino}-cyclohexyl)-methanol]"
3,134 to 135 °C,"COCCOc1cccc2c1ccn2-c1ccnc(N[C@H]2CC[C@H](C(=O)N3CCC(O)CC3)CC2)n1 [Compound 222, (4-hydroxy-piperidin-1-yl)-(4-{4-[4-(2-methoxy-ethoxy)-indol-1-yl]-pyrimidin-2-ylamino}-cyclohexyl)-methanone]"
4,152 to 153 °C,"CS(=O)(=O)CCCOc1cccc2c1ccn2-c1ccnc(N[C@H]2CC[C@H](C(=O)N3CC(O)C3)CC2)n1 [Compound 223, (3-hydroxy-azetidin-1-yl)-(4-{4-[4-(3-methane-sulfonyl-propoxy)-indol-1-yl]-pyrimidin-2-ylamino}-cyclohexyl)-methanone]"
5,190 to 191 °C,"CN(C)S(=O)(=O)CCCOc1cccc2c1cnn2-c1ccnc(N[C@H]2CC[C@H](C(=O)N3CCC(O)CC3)CC2)n1 [Compound 229, 3-(1-{2-[4-(4-hydroxy-piperidin-1-carbonyl)-cyclohexylamino]-pyrimidin-4-yl}-1H-indazol-4-yloxy)-propane-1-sulfonic acid dimethylamide]"
6,> 300 °C,"CS(=O)(=O)N[C@H]1CC[C@H](Nc2nccc(-n3ccc4c(C5(O)CCS(=O)(=O)CC5)cccc43)n2)CC1 [Compound 230, N-(4-{4-[4-(4-hydroxy-1,1-dioxohexahydro-thiopyran-4-yl)-indol-1-yl]-pyrimidin-2-yl-amino}-cyclohexyl)-methanesulfonamide]"
7,271 to 272 °C,"O=C([C@H]1CC[C@H](Nc2nccc(-n3ccc4c(C5(O)CCS(=O)(=O)CC5)cccc43)n2)CC1)N1CCC(O)CC1 [Compound 231, (4-{4-[4-(4-hydroxy-1,1-dioxo-hexahydro-thiopyran-4-yl)-indol-1-yl]-pyrimidin-2-yl-amino}-cyclohexyl)-(4-hydroxy-piperidin-1-yl)-methanone]"
8,259 to 260 °C,"N#Cc1cn(-c2ccnc(N[C@H]3CC[C@H](C(=O)N4CCC(O)CC4)CC3)n2)c2ccccc12 [Compound 249, 1-{2-[4-(4-hydroxy-piperidine-1-carbonyl)-cyclohexylamino]-pyrimidin-4-yl}-1H-indol-3-carbonitrile]"
9,249 to 250 °C,"CS(=O)(=O)CCCOc1cccc2c1ccn2-c1ccnc(N[C@H]2CC[C@H](C(N)=O)CC2)n1 [Compound 250, 4-{4-[4-(3-methane-sulfonyl-propoxy)-indol-1-yl]-pyrimidin-2-ylamino}-cyclohexane-carboxylic acid amide]"
10,174.5 to 175.5 °C,"CS(=O)(=O)CCCOc1cccc2c1cnn2-c1ccnc(N[C@H]2CC[C@H](C(=O)c3ccccc3)CC2)n1 [Compound 255, (4-{4-[4-(3-methane-sulfonyl-propoxy)-indazol-1-yl]-pyrimidin-2-ylamino}-cyclohexyl)-phenyl-methanone]"
11,178 to 179 °C,"CC(C)(O)c1cccc2c1ccn2-c1ccnc(N[C@H]2CC[C@H](NS(=O)(=O)N3CCCC3)CC2)n1 [Compound 258, Pyrrolidine-1-sulfonic acid (4-{4-[4-(2-hydroxyprop-2-yl)-indol-1-yl]-pyrimidin-2-ylamino}-cyclohexyl)-amide]"
12,> 300 °C,"CC(C)(O)c1cccc2c1ccn2-c1ccnc(N[C@H]2CC[C@H](NS(=O)(=O)N3CCOCC3)CC2)n1 [Compound 259, Morpholine-4-sulfonic acid (4-{4-[4-(2-hydroxyprop-2-yl)-indol-1-yl]-pyrimidin-2-ylamino}-cyclohexyl)-amide]"
13,166 to 167 °C,"CCOC(=O)[C@H]1CC[C@H](Nc2nccc(-n3ncc4c(OCCCS(N)(=O)=O)cccc43)n2)CC1 [Compound 260, 4-{4-[4-(3-sulfamoyl-propoxy)-indazol-1-yl]-pyrimidin-2-ylamino}-cyclohexanecarboxylic acid ethyl ester]"
